In US10239873B2, “7-azaindole or 4,7-diazaindole derivatives as IKKϵ epsilon and TBK1 inhibitor and pharmaceutical composition comprising same” (GREEN CROSS CORPORATION, priority 2015, dated 2019) one finds IC50 data, which are given here for 20 compounds.

One assay addresses T1, TBK1 (Homo sapiens, UniProt Q9UHD2).
T1 construct: purchased Promega (Invitrogen is also named in the same bracket) V4158; PR8031B; V3991 (not assigned to the two kinases)
T1 sequence (Q9UHD2 1-729): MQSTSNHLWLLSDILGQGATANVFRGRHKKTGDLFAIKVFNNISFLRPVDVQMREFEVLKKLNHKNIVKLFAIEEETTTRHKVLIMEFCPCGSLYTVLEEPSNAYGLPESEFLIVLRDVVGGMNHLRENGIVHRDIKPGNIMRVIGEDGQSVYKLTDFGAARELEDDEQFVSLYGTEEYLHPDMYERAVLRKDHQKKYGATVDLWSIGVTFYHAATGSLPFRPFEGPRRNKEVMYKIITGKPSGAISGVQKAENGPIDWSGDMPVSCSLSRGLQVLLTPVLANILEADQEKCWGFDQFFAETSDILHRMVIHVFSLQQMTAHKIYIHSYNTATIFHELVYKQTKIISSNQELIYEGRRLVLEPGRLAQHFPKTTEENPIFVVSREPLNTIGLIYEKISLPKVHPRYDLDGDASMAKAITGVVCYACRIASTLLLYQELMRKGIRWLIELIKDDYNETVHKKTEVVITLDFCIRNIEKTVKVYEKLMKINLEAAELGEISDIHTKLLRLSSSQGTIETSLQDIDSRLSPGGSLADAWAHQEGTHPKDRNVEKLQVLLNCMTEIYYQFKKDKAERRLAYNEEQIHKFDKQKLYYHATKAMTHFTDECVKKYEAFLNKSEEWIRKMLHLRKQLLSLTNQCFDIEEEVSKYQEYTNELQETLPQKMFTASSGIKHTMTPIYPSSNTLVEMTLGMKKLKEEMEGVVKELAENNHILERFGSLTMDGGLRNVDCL
Kind of assay: ADP-Glo Kinase Assay, inhibition activity on TBK1. It counts as biochemical. A digest of the protocol:
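In 40 mM Tris pH 7.5 with 20 mM MgCl2 and 0.1 mg/mL BSA, each enzyme (IKKε or TBK1 kinase system) was run according to the manufacturer's protocol. ADP formed was detected by ADP-Glo luminescence.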
A general note: In ADP-Glo the light output rises with the ADP produced.

In the next assay the target is T2, IKKε (Homo sapiens, UniProt Q14164).
T2 construct: purchased Promega and/or Invitrogen V4158; PR8031B; V3991 (not assigned to the two kinases)
T2 sequence (Q14164 1-716): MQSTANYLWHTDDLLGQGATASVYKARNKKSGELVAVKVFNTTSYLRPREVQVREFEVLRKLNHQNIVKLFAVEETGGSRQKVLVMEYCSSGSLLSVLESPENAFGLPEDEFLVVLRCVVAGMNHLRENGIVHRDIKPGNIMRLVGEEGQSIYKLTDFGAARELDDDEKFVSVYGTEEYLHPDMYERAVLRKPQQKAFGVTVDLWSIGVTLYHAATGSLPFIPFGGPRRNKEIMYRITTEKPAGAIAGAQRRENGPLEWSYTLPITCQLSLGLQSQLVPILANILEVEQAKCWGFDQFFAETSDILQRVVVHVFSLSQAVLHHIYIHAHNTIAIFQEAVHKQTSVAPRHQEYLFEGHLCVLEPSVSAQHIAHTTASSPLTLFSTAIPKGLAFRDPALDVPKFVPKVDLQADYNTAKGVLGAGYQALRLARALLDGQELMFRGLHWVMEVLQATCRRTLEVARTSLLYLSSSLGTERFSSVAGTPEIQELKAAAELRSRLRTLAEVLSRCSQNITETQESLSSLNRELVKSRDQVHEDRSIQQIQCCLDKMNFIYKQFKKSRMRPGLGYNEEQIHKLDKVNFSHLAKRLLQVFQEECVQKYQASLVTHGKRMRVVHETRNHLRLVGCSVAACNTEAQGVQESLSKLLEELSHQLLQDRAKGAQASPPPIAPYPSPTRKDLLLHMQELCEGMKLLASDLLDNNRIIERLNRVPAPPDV
Kind of assay: ADP-Glo Kinase Assay, inhibition activity on IKKε. It counts as biochemical. Here is the method:
Inhibition activities on IKKϵ and TBK1 were evaluated using the compounds of Examples 1 to 250.
The inhibition activities on IKKϵ and TBK1 were measured by a luminometer, IKKϵ/TBK1 Kinase Enzyme System (Promega, Ca# V4158; Invitrogen, PR8031B, Promega, Ca# V3991) and ADP-Glo Kinase Assay using ADP-Glo™ Kinase Analysis Kit (Promega, Ca# V9101) and a kinase reaction buffer [40 mM Tris(pH 7.5), 20 mM MgCl2, 0.1 mg/mL BSA] in accordance with the manufacturer's protocol.

Structures are written as SMILES.

As to `CC(C)NC(=O)N1CC=C(c2c[nH]c3ncc(-c4ccccc4)cc23)CC1` [Example 11, N-isopropyl-4-(5-phenyl-1H-pyrrolo[2,3-b]pyridin-3-yl)-5,6-dihydropyridine-1(2H)-carboxamide], the IC50 against TBK1 is 24 nM; against IKKε, 8200 nM.

In the case of `COc1ccc(-c2cnc3[nH]cc(C4=CCN(C(=O)NC(C)C)CC4)c3c2)cc1` [Example 12, N-isopropyl-4-(5-(4-methoxyphenyl)-1H-pyrrolo[2,3-b]pyridin-3-yl)-3,6-dihydropyridine-1(2H)-carboxamide], the 50% inhibitory concentration (IC50) against TBK1 amounted to 29 nM; on IKKε it was 2200 nM.

As to `CC(C)NC(=O)N1CC=C(c2c[nH]c3ncc(-c4ccc(F)cc4)cc23)CC1` [Example 13, 4-(5-(4-Fluorophenyl)-1H-pyrrolo[2,3-b]pyridin-3-yl)-N-isopropyl-3,6-dihydropyridine-1(2H)-carboxamide], the IC50 came out at 31 nM on TBK1 and 6800 nM against IKKε.

For the compound `COc1cccc(-c2cnc3[nH]cc(C4=CCN(C(=O)NC(C)C)CC4)c3c2)c1` [Example 14, N-isopropyl-4-(5-(3-methoxyphenyl)-1H-pyrrolo[2,3-b]pyridin-3-yl)-3,6-dihydropyridine-1(2H)-carboxamide], the IC50 against TBK1 was 15 nM; at IKKε, > 10000 nM.

In the case of `CC(C)NC(=O)N1CC=C(c2c[nH]c3ncc(-c4cccc(F)c4)cc23)CC1` [Example 15, 4-(5-(3-Fluorophenyl)-1H-pyrrolo[2,3-b]pyridin-3-yl)-N-isopropyl-3,6-dihydropyridine-1(2H)-carboxamide], the IC50 was 11 nM at TBK1 and > 10000 nM on IKKε.

Take `Cc1ccc(-c2cnc3[nH]cc(C4=CCN(C(=O)NC(C)C)CC4)c3c2)cc1` [Example 16, N-isopropyl-4-(5-(p-tolyl)-1H-pyrrolo[2,3-b]pyridin-3-yl)-3,6-dihydropyridine-1(2H)-carboxamide]: the IC50 at TBK1 is 36 nM; on IKKε it was 280 nM.

Turning to `CC(=O)Nc1ccc(-c2cnc3[nH]cc(C4=CCN(C(=O)NC(C)C)CC4)c3c2)cc1` [Example 17, 4-(5-(4-Acetamidophenyl)-1H-pyrrolo[2,3-b]pyridin-3-yl)-N-isopropyl-3,6-dihydropyridine-1(2H)-carboxamide], the IC50 turned out to be 7.8 nM against TBK1 and 21 nM against IKKε.

On to `COc1ccc(-c2cnc3[nH]cc(C4=CCN(C(=O)NC(C)C)CC4)c3c2)cc1OC` [Example 18, 4-(5-(3,4-Dimethoxyphenyl)-1H-pyrrolo[2,3-b]pyridin-3-yl)-N-isopropyl-5,6-dihydropyridine-1(2H)-carboxamide], for which the concentration for half-maximal inhibition (IC50) against TBK1 stood at 2.5 nM; against IKKε, 45 nM.

Regarding `CC(=O)Nc1cccc(-c2cnc3[nH]cc(C4=CCN(C(=O)NC(C)C)CC4)c3c2)c1` [Example 19, 4-(5-(3-Acetamidophenyl)-1H-pyrrolo[2,3-b]pyridin-3-yl)-N-isopropyl-3,6-dihydropyridine-1(2H)-carboxamide], the IC50 against TBK1 came to 6.4 nM; on IKKε, 7 nM.

Consider `CC(C)NC(=O)N1CC=C(c2c[nH]c3ncc(-c4ccc(CN5CCOCC5)cc4F)cc23)CC1` [Example 20, 4-(5-(2-Fluoro-4-(morpholinomethyl)phenyl)-1H-pyrrolo[2,3-b]pyridin-3-yl)-N-isopropyl-3,6-dihydropyridine-1(2H)-carboxamide], for which the IC50 against TBK1 stood at 32 nM; against IKKε it was 46 nM.

`CC(C)NC(=O)N1CC=C(c2c[nH]c3ncc(-c4cc(CN5CCOCC5)ccc4F)cc23)CC1` [Example 21, 4-(5-(2-Fluoro-5-(morpholinomethyl)phenyl)-1H-pyrrolo[2,3-b]pyridin-3-yl)-N-isopropyl-3,6-dihydropyridine-1(2H)-carboxamide]: the IC50 against TBK1 turned out to be 71 nM; on IKKε, 160 nM.

Turning to `CCN1CCN(Cc2ccc(-c3cnc4[nH]cc(C5=CCN(C(=O)NC(C)C)CC5)c4c3)cc2)CC1` [Example 22, 4-(5-(4-((4-Ethylpiperazin-1-yl)methyl)phenyl)-1H-pyrrolo[2,3-b]pyridin-3-yl)-N-isopropyl-3,6-dihydropyridine-1(2H)-carboxamide], the IC50 at TBK1 came to 10 nM; against IKKε, 20 nM.

With `CC(C)NC(=O)N1CC=C(c2c[nH]c3ncc(-c4ccc(CN5CCN(C6CC6)CC5)cc4)cc23)CC1` [Example 23, 4-(5-(4-((4-Cyclopropylpiperazin-1-yl)methyl)phenyl)-1H-pyrrolo[2,3-b]pyridin-3-yl)-N-isopropyl-3,6-dihydropyridine-1(2H)-carboxamide], the half-maximal inhibitory concentration (IC50) is 5.7 nM against TBK1 and 6.6 nM against IKKε.

For `CCN1CCN(Cc2cccc(-c3cnc4[nH]cc(C5=CCN(C(=O)NC(C)C)CC5)c4c3)c2)CC1` [Example 24, 4-(5-(3-((4-Ethylpiperazin-1-yl)methyl)phenyl)-1H-pyrrolo[2,3-b]pyridin-3-yl)-N-isopropyl-3,6-dihydropyridine-1(2H)-carboxamide], the 50% inhibitory concentration (IC50) is 12 nM against TBK1 and 41 nM against IKKε.

Consider `CC(C)NC(=O)N1CC=C(c2c[nH]c3ncc(-c4ccc(CN5CCN(C)CC5)nc4)cc23)CC1` [Example 25, N-isopropyl-4-(5-(6-((4-methylpiperazin-1-yl)methyl)pyridin-3-yl)-1H-pyrrolo[2,3-b]pyridin-3-yl)-3,6-dihydropyridine-1(2H)-carboxamide], for which the 50% inhibitory concentration (IC50) stood at 16 nM on TBK1 and 51 nM against IKKε.

For the compound `CCN1CCN(Cc2ccc(-c3cnc4[nH]cc(C5=CCN(C(=O)NC(C)C)CC5)c4c3)s2)CC1` [Example 26, 4-(5-(5-((4-Ethylpiperazin-1-yl)methyl)thiophen-2-yl)-1H-pyrrolo[2,3-b]pyridin-3-yl)-N-isopropyl-3,6-dihydropyridine-1(2H)-carboxamide], the IC50 against TBK1 was found to be 7.7 nM; against IKKε, 25 nM.

Consider `CC(C)NC(=O)N1CC=C(c2c[nH]c3ncc(-c4ccc(CN5CCCC5)o4)cc23)CC1` [Example 27, N-isopropyl-4-(5-(5-(pyrrolidin-1-ylmethyl)furan-2-yl)-1H-pyrrolo[2,3-b]pyridin-3-yl)-5,6-dihydropyridine-1(2H)-carboxamide], for which the IC50 against TBK1 came out at 570 nM; on IKKε it was 1980 nM.

Take `CC(C)NC(=O)N1CC=C(c2c[nH]c3ncc(-c4ccc(CN5CCCC5)s4)cc23)CC1` [Example 28, N-isopropyl-4-(5-(5-(pyrrolidin-1-ylmethyl)thiophen-2-yl)-1H-pyrrolo[2,3-b]pyridin-3-yl)-5,6-dihydropyridine-1(2H)-carboxamide]: the IC50 was found to be 18 nM at TBK1 and 58 nM against IKKε.

For the compound `CC(C)NC(=O)N1CC=C(c2c[nH]c3ncc(-c4cccc(CN5CCOCC5)c4)cc23)CC1` [Example 29, N-isopropyl-4-(5-(3-(morpholinomethyl)phenyl)-1H-pyrrolo[2,3-b]pyridin-3-yl)-5,6-dihydropyridine-1(2H)-carboxamide], the concentration for half-maximal inhibition (IC50) against TBK1 turned out to be 16 nM; against IKKε it was 29 nM.

For the compound `CC(C)NC(=O)N1CC=C(c2c[nH]c3ncc(-c4ccc(CN5CCOCC5)cc4)cc23)CC1` [Example 30, N-isopropyl-4-(5-(4-(morpholinomethyl)phenyl)-1H-pyrrolo[2,3-b]pyridin-3-yl)-5,6-dihydropyridine-1(2H)-carboxamide], the half-maximal inhibitory concentration (IC50) against TBK1 was 4.5 nM; against IKKε, 8.8 nM.

As usually defined, the IC50 is the concentration that gives 50% inhibition. A high value points to lower potency.
